Series [1] relates to human gastric adenocarcinoma (SCM-1). Put plainly: MTT cytotoxicity assay, SCM-1. In kind it is cell-based. As to conditions: read-out: IC50 SCM-1. On the technique in general: Formazan colour is commonly taken as a measure of viable cells.
Series [2] concerns human breast adenocarcinoma (MCF-7). Kind of series: MTT cytotoxicity assay, MCF-7. In kind it is cell-based. Conditions: MCF7, read-out: IC50 MCF-7.
In series [3] the test system is human oral squamous cell carcinoma (SCC2095). Put plainly: MTT cytotoxicity assay, SCC2095. The series is classed as cell-based. As to conditions: read-out: IC50 SCC2095.
The test system of series [4] is human leukemia MOLT-4 cell line. As to conditions: cited from earlier work.
Series [5] deals with colchicine resistant KB-C2 cell lines. Conditions: cited from earlier work.

What is called IC50 is the concentration that inhibits the measured activity by half.

With `CC(=O)O[C@H]1C(=O)[C@@]2(C)[C@H]([C@H](OC(=O)c3ccccc3)[C@]3(O)C[C@H](OC(=O)[C@H](O)[C@@H](NC(=O)c4ccccc4)c4ccccc4)C(C)=C1C3(C)C)[C@]1(OC(C)=O)CO[C@@H]1C[C@@H]2O` [Paclitaxel], the IC50 in series [1] is 0.07 ± 0.002 µM.
For the compound `COc1cc(C=O)cc(OC)c1O` [Compound 14, 4-hydroxy-3,5-dimethoxybenzaldehyde], the IC50 in series [2], in series [3] and in series [1] was greater than 10 µM throughout.
Consider `CC[C@H](CC[C@@H](C)[C@H]1CC[C@H]2[C@@H]3[C@H](O)C=C4C[C@@H](O)CC[C@]4(C)[C@H]3CC[C@]12C)C(C)C` [Compound 8, (3β,7α)-stigmast-5-ene-3,7-diol], for which the IC50 in series [2], in series [3] and in series [1] was greater than 30 µM each time.
As to `COc1cc([C@@H]2c3cc4c(cc3[C@@H](O[C@@H]3O[C@@H]5CO[C@@H](C)O[C@H]5[C@H](O)[C@H]3O)[C@H]3COC(=O)[C@H]23)OCO4)cc(OC)c1O` [Etoposide], in series [3], the half-maximal inhibitory concentration (IC50) stood at 2.5 ± 0.2 µM.
On to `CC(=O)OC[C@H]1O[C@@H](O[C@@H]2C[C@H]3C(C)(C)[C@H](OC(C)=O)CC[C@]3(C)[C@H]3CC[C@]45C[C@]4(CC[C@H]5[C@@H](C)C[C@@H](O)[C@H](O)C(C)(C)O)[C@@]32C)[C@H](O)[C@@H](O)[C@@H]1O` [cumingianoside A], for which the “ED50 cytotoxicity MOLT-4” value in series [4] is less than 6.25 ng/mL.
Regarding `COC(C)(C)[C@@H](O)[C@H](O)C[C@H](C)[C@@H]1CC[C@]23C[C@]12CC[C@@H]1[C@@]2(C)CC[C@@H](OC(C)=O)C(C)(C)[C@@H]2C[C@@H](O[C@@H]2O[C@H](COC(C)=O)[C@@H](O)[C@H](O)[C@H]2O)[C@]13C` [cumingianoside C], the “ED50 cytotoxicity MOLT-4” value in series [4] is less than 4.5 ng/mL.
With cumingianol B, in series [5], the “cytotoxicity against multi-drug resistant KB-C2 cancer cells (in words)” value is “enhanced cytotoxicity”.
Take dycusin A: the “cytotoxicity against multi-drug resistant KB-C2 cancer cells (in words)” value in series [5] was “enhanced cytotoxicity”.

These data come from publication PMC12400309 (RSC Advances, 2025).
